Experimental data as given in US7994198B2, “Piperidinetriol derivatives as inhibitors of glycosylceramidsynthase” (Actelion Pharmaceuticals Ltd., priority 2002, dated 2011).
pIC50: −log10 of the molar value. Read-outs that look alike come from different tables or passages of the source.

Tests used:
human GCS [1] = molecular target: T1, human GCS (Homo sapiens, UniProt Q16739); assay: Inhibition of GCS (human recombinant GCS expressed in insect cells); format: biochemical; set-up: made in house; host or cells: insect cells
T1 sequence (Q16739 1-394): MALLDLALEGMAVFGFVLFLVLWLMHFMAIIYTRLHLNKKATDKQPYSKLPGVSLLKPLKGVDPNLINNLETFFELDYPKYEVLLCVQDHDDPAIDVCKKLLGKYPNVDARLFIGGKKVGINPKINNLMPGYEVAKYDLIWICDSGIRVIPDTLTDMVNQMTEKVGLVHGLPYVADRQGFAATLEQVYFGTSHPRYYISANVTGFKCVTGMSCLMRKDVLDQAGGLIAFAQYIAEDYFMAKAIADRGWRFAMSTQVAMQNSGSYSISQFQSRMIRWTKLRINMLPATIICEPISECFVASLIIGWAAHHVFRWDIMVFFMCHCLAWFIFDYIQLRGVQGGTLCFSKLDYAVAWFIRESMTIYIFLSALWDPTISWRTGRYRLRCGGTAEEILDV

[2] = molecular target: T2, non-lysosomal-β-glucocerebrosidase (Homo sapiens, UniProt Q9HCG7); assay: Inhibition of non-lysosomal-β-glucocerebrosidase (whole cell extracts of MCF7); format: biochemical
T2 construct: endogenous in cells; host or cells: MCF7 whole cell extracts
T2 sequence (Q9HCG7 1-927): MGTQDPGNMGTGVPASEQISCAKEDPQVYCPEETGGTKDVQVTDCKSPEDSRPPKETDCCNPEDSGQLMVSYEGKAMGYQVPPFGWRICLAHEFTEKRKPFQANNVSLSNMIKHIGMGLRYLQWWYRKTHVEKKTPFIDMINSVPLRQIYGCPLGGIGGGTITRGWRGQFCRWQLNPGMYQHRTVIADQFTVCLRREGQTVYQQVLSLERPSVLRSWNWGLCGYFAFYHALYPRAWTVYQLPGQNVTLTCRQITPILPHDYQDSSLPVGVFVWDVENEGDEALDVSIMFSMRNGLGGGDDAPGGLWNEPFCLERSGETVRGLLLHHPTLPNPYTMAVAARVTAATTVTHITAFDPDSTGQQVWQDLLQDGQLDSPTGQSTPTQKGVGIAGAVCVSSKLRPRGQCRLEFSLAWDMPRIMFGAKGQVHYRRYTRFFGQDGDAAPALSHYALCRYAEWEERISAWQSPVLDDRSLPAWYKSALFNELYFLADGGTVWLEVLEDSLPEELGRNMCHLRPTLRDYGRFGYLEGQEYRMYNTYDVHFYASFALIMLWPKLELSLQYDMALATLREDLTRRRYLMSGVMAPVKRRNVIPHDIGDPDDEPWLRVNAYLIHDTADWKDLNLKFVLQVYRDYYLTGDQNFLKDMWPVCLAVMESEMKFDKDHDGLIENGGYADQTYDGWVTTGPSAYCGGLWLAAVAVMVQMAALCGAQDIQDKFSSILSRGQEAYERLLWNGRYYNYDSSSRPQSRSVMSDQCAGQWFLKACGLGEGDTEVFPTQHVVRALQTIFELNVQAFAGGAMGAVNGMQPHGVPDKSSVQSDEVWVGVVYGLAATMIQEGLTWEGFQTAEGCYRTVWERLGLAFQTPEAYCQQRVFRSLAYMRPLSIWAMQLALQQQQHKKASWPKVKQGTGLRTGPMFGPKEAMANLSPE
Procedure: The assay for inhibition of non-lysosomal-β-glucocerebrosidase was essentially carried out as described in Overkleeft, H. S. et al., J. Biol. Chem., (1998) 273, 26522-26527 with the following differences: whole cell extracts of MCF7 (a human breast carcinoma cell line) was used as the source of the enzyme instead of splenic membrane suspensions; 5mM instead of 3Mm, 4-MU β-glucoside was used as substrate and 0.2M citrate/phosphate (pH 5.8) was used instead of McIlvaine buffer.

human GCS [3] = molecular target: T1, human GCS; assay: Cell-based IC50 for GCS inhibition by measuring glucosylceramide (GlcCer) depletion in MCF-7 cells; settings: MCF-7 cells cultured 5-7 days; GlcCer depletion by HPTLC; read-out: Inhibition of GCS Cellular-based (IC50 μM)
glycolipid biosynthesis = settings: as disclosed in EP-A-0698012; cited from earlier work

SMILES	IC50 (human GCS [1]) [µM]	pIC50 [2]	Inhibition of glycolipid biosynthesis (glycolipid biosynthesis)	further results
O=C(NCc1ccc(F)cc1)c1ccc(CN2C[C@H](O)[C@@H](O)[C@@H](O)[C@@H]2CO)cc1 [Example 1, Benzamide, N-[(4-fluorophenyl)methyl]4-[[(2S,3S,4R,5S)-3,4,5-trihydroxy-2-(hydroxymethyl)-1-piperidinyl]methyl]-,]	2.2	–	–	–
CCCN(CCC)c1ccc(CN2C[C@H](O)[C@@H](O)[C@@H](O)[C@@H]2CO)cc1C#N [Example 4, 3,4,5-Piperidinetriol, 1-[(3-cyano-4-(dipropylamino)phenyl)methyl]-2-(hydroxymethyl), (2S,3S,4R,5S)]	0.62	–	–	IC50 ([2]; MCF7 whole cell extract, 5mM 4-MU β-glucoside, citrate/phosphate pH 5.8, read-out: Inhibition of non-lysosomal-β-glucocerebrosidase (IC50 μM)): 1.93 µM
C[C@@H](NC(=O)c1ccc(CN2C[C@H](O)[C@@H](O)[C@@H](O)[C@@H]2CO)cc1)c1ccccc1 [Example 6, Benzamide, N-[1-(R)-(phenyl)ethyl]4-[[(2S,3S,4R,5S)-3,4,5-trihydroxy-2-(hydroxymethyl)-1-piperidinyl]methyl]-,]	–	–	–	IC50 (human GCS [3]): 1 µM
CCCCN1C[C@@H](O)[C@H](O)[C@H](O)[C@@H]1C [NB-DFJ]	–	–	do not act as inhibitors of glycolipid biosynthesis	–
CCCCN1C[C@@H](O)[C@@H](O)[C@H](O)[C@H]1CO [NB-DMJ]	–	–	do not act as inhibitors of glycolipid biosynthesis	–
CCCCN1C[C@H](NC(C)=O)[C@@H](O)[C@H](O)[C@H]1CO [NB-NAG]	–	–	do not act as inhibitors of glycolipid biosynthesis	–

Continued, in another order:

IC50 (human GCS [1]) [µM]	pIC50 [2]	SMILES	Inhibition of glycolipid biosynthesis (glycolipid biosynthesis)	further results
0.66	5.03	OC[C@H]1[C@H](O)[C@H](O)[C@@H](O)CN1Cc1ccc(OCc2ccccc2)cc1 [Example 2, 3,4,5-Piperidinetriol, 2-(hydroxymethyl)-1-[[4-(phenylmethoxy)phenyl]methyl]-, (2S,3S,4R,5S)]	–	IC50 (human GCS [3]): < 0.1 µM
7.2	4.83	C[C@H](NC(=O)c1ccc(CN2C[C@H](O)[C@@H](O)[C@@H](O)[C@@H]2CO)cc1)c1ccccc1 [Example 3, Benzamide, N-[1-(S)-(phenyl)ethyl]-4-[[(2S,3S,4R,5S)-3,4,5-trihydroxy-2-(hydroxymethyl)-1-piperidinyl]methyl]-,]	–	–
4.7	< 4.00	C[C@@H](NC(=O)c1ccc(CN2C[C@H](O)[C@@H](O)[C@@H](O)[C@@H]2CO)cc1)c1ccc(F)cc1 [Example 7, Benzamide, N-[1-(R)-(4-fluorophenyl)ethyl]-4-[[(2S,3S,4R,5S)-3,4,5-trihydroxy-2-(hydroxymethyl)-1-piperidinyl]methyl]-,]	–	–
